{"source": "paper PMC8698070", "about": "“The Zoonotic Helminth Parasite Fasciola hepatica: Virulence-Associated Cathepsin B and Cathepsin L Cysteine Peptidases Secreted by Infective Newly Excysted Juveniles (NEJ)” (Animals : an Open Access Journal from MDPI, 2021)", "key": {"FhCB1": {"target": "FhCB1 (Fasciola hepatica, UniProt Q8I7B2)", "sequence (Q8I7B2 entry or part of it)": "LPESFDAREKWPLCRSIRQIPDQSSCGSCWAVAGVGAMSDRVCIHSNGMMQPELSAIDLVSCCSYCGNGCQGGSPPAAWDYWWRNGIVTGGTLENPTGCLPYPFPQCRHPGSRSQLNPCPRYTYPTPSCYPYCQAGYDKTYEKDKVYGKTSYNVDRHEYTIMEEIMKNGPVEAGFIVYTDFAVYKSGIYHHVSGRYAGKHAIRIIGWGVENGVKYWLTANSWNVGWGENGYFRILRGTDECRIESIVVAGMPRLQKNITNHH", "assay": "Inhibition of recombinant FhCB1, fluorogenic substrate assay (Z-Phe-Arg-AMC)", "assay_type": "biochemical", "protocol": "(§1) Recombinant peptidases were assayed for enzymatic activity using a fluorogenic substrate assay. The reactions were carried out in 0.1 M C-P buffer (pH 7.0) with 1 mM DTT in a final volume of 200 μL, in a black 96-well plate. Each well contained activated enzyme (140 nM) and 20 μM fluorogenic substrate, which was added to start the reaction. All assays were run in triplicate at 37 °C for 1 h. Enzyme activity was monitored by rate of hydrolysis and subsequent release of the AMC group on the synthetic peptide substrates at an excitation wavelength of 370 nm and an emission wavelength of 460 nm, as relative fluorescence units (RFU), in a PolarStar Omega Spectrophotometer (BMG Labtech, Aylesbury, UK). All data were plotted and analysed using MARS Data Analysis Software (BMG Labtech, UK) and GraphPad Prism version 5.\n(§2) Commercially available inhibitors of cathepsin B (Ca074 and Ca074-OMe), cathepsin L (L, L1, LII, LIII and LIV), cathepsin K (KI, KII and KIII) and cathepsin S were purchased from Merck Millipore (Cork, Ireland; Supplementary Figure S2). The broad-spectrum papain peptidase inhibitor Z-Phe-Ala-FMK was purchased from Enzo Life Sciences (Exeter, UK). These were used to determine and compare the inhibition constant (Ki) against the recombinant FhCBs and FhCL3. All the assays were carried out in 0.1 M C-P buffer with 1 mM DTT and 0.01% Brij® L23, at the pH corresponding to the optimum for each enzyme in a total 200 µL reaction volume. The peptidases (140 nM) were pre-incubated with the inhibitor (1000-15 nM) at room temperature, for 30 min, before starting the reaction by the addition of the substrate that was optimal for each enzyme (FhCB1, Z-Phe-Arg-AMC; FhCB2 and FhCB3, Z-Val-Ile-Arg-AMC; FhCL3, Z-Gly-Pro-Arg-AMC). Substrate concentrations were equal to KM (shown in Table 1) and the apparent inhibition constant (Ki^app) values were calculated with GraphPad Prism 5, using the Morrison equation for tight binding inhibition (Equation (3)). For competitive inhibitors, such as those used in this study, Ki^app was fitted to a second equation (Equation (4)) from which Ki can be determined. (3) vi/vo=1−([E])+[I]+Kiapp)−([E]+[I]+Kiapp)^2−4[E][I] /2[E] (4) Kiapp=Ki(1+[S]/KM)"}, "FhCB2": {"target": "FhCB2 (Fasciola hepatica, UniProt A5X493)", "sequence (A5X493 entry or part of it)": "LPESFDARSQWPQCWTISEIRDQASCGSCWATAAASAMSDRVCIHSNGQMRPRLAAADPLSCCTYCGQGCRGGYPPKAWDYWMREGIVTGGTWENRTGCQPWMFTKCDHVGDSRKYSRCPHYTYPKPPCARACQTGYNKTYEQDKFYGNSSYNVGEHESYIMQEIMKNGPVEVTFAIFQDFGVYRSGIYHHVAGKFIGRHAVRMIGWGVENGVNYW", "assay": "Inhibition of recombinant FhCB2, fluorogenic substrate assay (Z-Val-Ile-Arg-AMC)", "assay_type": "biochemical", "protocol": "as §1, §2"}, "FhCL3": {"target": "FhCL3 (Fasciola hepatica, UniProt A0A879R2T5)", "sequence (A0A879R2T5 entry or part of it)": "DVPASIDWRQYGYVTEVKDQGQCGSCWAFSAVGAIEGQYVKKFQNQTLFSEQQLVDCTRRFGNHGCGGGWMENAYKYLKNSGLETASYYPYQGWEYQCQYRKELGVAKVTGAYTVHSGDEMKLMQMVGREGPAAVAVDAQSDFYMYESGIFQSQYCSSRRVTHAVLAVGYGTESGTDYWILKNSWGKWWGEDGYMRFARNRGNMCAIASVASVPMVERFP", "assay": "Inhibition of recombinant FhCL3, fluorogenic substrate assay (Z-Gly-Pro-Arg-AMC)", "assay_type": "biochemical", "protocol": "as §1, §2"}, "human cathepsin B (HsCB)": {"target": "T1, human cathepsin B (HsCB) (Homo sapiens, UniProt P07858)", "T1 construct": "purchased Sigma-Aldrich; host or cells: human embryonic kidney cells", "assay": "Inhibitor screen against human cathepsin B control", "assay_type": "biochemical", "from_the_text": "The Schistosoma mansoni cathepsin B1 (SmCB1) was also produced in our laboratory using P. pastoris as described above. The human cathepsin B (HsCB) and cathepsin L1 (HsCL1) were produced in human embryonic kidney cells (Sigma-Aldrich).\nas §2, with “All the assays were carried out in 0.1 M C-P buffer with 1 mM DTT and 0.01% Brij® L23, at the pH corresponding to the optimum for each enzyme in a total 200 µL reaction volume. The peptidases (140 nM) were pre-incubated with the inhibitor (1000-15 nM) at room temperature, for 30 min, before starting the reaction by the addition of the substrate that was optimal for each enzyme (FhCB1, Z-Phe-Arg-AMC; FhCB2 and FhCB3, Z-Val-Ile-Arg-AMC; FhCL3, Z-Gly-Pro-Arg-AMC).” left out\nThe broad-range cysteine peptidase inhibitor Z-Phe-Ala-FMK was also included (Figure 5).\nFigure 5 Profile of inhibition of FhCB1, FhCB2, FhCB3 and FhCL3. Commercially available inhibitors of cathepsin B (Ca074 and Ca07a-OMe), cathepsin L (L, L1, LII, LIII and LIV), cathepsin K (KI, KII and KIII), cathepsin S and the broad-spectrum papain peptidase inhibitor Z-Phe-Ala-FMK (A–L) were used to determine and compare the inhibition constant against recombinants FhCB1, FhCB2, FhCB3, FhCL3, HsCB and HsCL1. […] Error bars indicate standard deviation of three replicates."}, "NEJ": {"tested_on": "NEJ", "parameters": "method as in PMID 19401154", "details": "concentration of 6.25 μM; cited from earlier work"}, "FhCB3": {"target": "FhCB3 (Fasciola hepatica, UniProt A7UNB2)", "sequence (A7UNB2 entry or part of it)": "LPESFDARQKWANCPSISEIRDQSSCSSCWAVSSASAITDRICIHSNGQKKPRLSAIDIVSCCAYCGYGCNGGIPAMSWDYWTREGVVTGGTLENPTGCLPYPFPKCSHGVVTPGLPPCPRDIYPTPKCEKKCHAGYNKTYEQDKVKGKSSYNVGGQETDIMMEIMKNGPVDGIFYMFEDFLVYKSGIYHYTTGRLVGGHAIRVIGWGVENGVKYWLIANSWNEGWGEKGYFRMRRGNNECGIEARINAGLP", "assay": "Inhibition of recombinant FhCB3, fluorogenic substrate assay (Z-Val-Ile-Arg-AMC)", "assay_type": "biochemical", "protocol": "as §1, §2"}}, "note": "“Also recorded” adds a separate entry of the source."}
{"smiles": "CCCNC(=O)[C@H]1O[C@@H]1C(=O)N[C@H](C(=O)N1CCC[C@H]1C(=O)OC)[C@@H](C)CC", "note": "[Ca074ME]", "values": [{"measurement": "inhibition of enzymatic activity (inhibitor screen, Figure 5), in words", "setting": "FhCB1; FhCB1, inhibitor 1000-15 nM, listed as Ca074-OMe", "result": "poor inhibitors; also recorded: very poor inhibitors"}, {"measurement": "inhibition constant Ki", "setting": "FhCB1; recombinant FhCB1 140 nM, 30 min pre-incubation, substrate Z-Phe-Arg-AMC at KM, optimum pH, ± SEM", "result": "poor inhibition"}, {"measurement": "Ki", "setting": "FhCB1; recombinant FhCB1 140 nM, 30 min pre-incubation, substrate Z-Phe-Arg-AMC at KM, optimum pH, ± SEM, read-out: inhibition constant Ki", "result": "5500 ± 1190", "unit": "nM"}, {"measurement": "inhibition of enzymatic activity (inhibitor screen, Figure 5), in words", "setting": "FhCB2; FhCB2, inhibitor 1000-15 nM, listed as Ca074-OMe", "result": "poor inhibitors; also recorded: very poor inhibitors"}, {"measurement": "inhibition constant Ki", "setting": "FhCB2; recombinant FhCB2 140 nM, 30 min pre-incubation, substrate Z-Val-Ile-Arg-AMC at KM, optimum pH, ± SEM", "result": "poor inhibition"}, {"measurement": "inhibition of enzymatic activity (inhibitor screen, Figure 5), in words", "setting": "FhCL3; FhCL3, inhibitor 1000-15 nM", "result": "poor inhibitors"}, {"measurement": "Ki", "setting": "FhCL3; inhibition constant Ki, recombinant FhCL3 140 nM, 30 min pre-incubation, substrate Z-Gly-Pro-Arg-AMC at KM, optimum pH, ± SEM", "result": "249 ± 35.5", "unit": "nM"}, {"measurement": "inhibition constant Ki", "setting": "FhCL3; recombinant FhCL3 140 nM, 30 min pre-incubation, substrate Z-Gly-Pro-Arg-AMC at KM, optimum pH, ± SEM", "result": "poor inhibition"}, {"measurement": "inhibition of enzymatic activity (inhibitor screen, Figure 5), in words", "setting": "human cathepsin B (HsCB)", "result": "selective for HsCB compared to HsCL1"}, {"measurement": "effect on cultured NEJ", "setting": "NEJ", "result": "sub-lethal effect"}, {"measurement": "Ki", "setting": "FhCB3", "result": "785 ± 130", "unit": "nM"}, {"measurement": "inhibition of enzymatic activity (inhibitor screen, Figure 5), in words", "setting": "FhCB3; FhCB3, inhibitor 1000-15 nM, listed as Ca074-OMe", "result": "poor inhibitors; also recorded: very poor inhibitors"}, {"measurement": "inhibition constant Ki", "setting": "FhCB3; recombinant FhCB3 140 nM, 30 min pre-incubation, substrate Z-Val-Ile-Arg-AMC at KM, optimum pH, ± SEM", "result": "poor inhibition"}]}
